# Test results taken from ChEMBL document CHEMBL4414666, “Structure-Activity Relationships of Pentacyclic Triterpenoids as Inhibitors of Cyclooxygenase and Lipoxygenase Enzymes” (J Nat Prod, 2019).
# Legend:
# [1] = molecular target: T1, Polyunsaturated fatty acid 5-lipoxygenase (Homo sapiens) (UniProt P09917); experiment: Inhibition of human recombinant 5-LOX expressed in insect cells assessed residual activity using arachidonic acid at 42 uM as substrate preincubated for 5 mins followed by substrate addition measured after 20 mins in dark by ferric ion oxidation-xylenol orange method relative to control
# T1 sequence (whole entry): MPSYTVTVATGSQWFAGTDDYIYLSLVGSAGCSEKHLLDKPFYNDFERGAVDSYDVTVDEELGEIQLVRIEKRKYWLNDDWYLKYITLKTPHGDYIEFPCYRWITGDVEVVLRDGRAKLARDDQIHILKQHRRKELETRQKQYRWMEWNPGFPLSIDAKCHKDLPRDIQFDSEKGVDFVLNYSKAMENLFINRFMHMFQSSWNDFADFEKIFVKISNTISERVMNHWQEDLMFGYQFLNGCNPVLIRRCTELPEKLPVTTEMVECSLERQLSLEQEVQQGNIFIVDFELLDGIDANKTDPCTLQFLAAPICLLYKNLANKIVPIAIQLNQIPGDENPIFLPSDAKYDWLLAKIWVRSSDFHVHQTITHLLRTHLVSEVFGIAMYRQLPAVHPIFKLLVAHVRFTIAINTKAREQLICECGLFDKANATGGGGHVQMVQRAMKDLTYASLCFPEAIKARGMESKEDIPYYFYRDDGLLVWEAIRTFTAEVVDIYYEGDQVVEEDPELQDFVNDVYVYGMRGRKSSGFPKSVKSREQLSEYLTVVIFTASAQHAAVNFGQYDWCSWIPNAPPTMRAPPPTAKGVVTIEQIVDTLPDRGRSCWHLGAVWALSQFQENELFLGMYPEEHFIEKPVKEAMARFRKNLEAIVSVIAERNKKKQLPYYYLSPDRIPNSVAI
# [2] = molecular target: T2, Prostaglandin G/H synthase 1 (Ovis aries, UniProt P05979);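 also: recombinant ovine COX1 enzyme, PGE2 formed from arachidonic acid quantified by LC-MS, 10 min inhibitor preincubation then 45 min reaction, inhibition seen as reduced PGE2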
# T2 sequence (P05979 whole entry): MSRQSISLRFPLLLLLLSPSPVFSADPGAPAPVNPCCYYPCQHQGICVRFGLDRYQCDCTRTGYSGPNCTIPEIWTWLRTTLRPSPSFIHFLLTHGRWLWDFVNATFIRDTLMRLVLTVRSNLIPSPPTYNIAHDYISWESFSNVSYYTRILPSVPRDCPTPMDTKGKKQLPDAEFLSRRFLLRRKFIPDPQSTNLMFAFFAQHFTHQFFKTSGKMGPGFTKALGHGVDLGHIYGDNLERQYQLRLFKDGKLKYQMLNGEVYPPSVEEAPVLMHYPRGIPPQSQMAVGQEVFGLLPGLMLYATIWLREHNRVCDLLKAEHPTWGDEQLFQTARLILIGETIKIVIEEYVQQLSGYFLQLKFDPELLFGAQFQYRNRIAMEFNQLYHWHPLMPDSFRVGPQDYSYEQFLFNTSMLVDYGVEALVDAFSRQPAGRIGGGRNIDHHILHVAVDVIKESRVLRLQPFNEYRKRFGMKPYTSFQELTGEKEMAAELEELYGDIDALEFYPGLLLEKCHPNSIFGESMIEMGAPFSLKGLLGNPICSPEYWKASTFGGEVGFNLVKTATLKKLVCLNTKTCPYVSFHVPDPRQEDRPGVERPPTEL
# Description: Inhibition of ovine recombinant COX1 assessed as decrease in formation of PGE2 using arachidonic acid as substrate preincubated for 10 mins followed by substrate addition measured after 45 mins by LC-MS analysis
# [3] = molecular target: T3, Polyunsaturated fatty acid 5-lipoxygenase (Homo sapiens, UniProt P09917); experiment: Inhibition of human recombinant 5-LOX expressed in insect cells assessed as decrease in production of 5-HPETE and 5-HETE using arachidonic acid as substrate preincubated for 5 mins followed by substrate addition measured after 20 mins in dark by ferric ion oxidation-xylenol orange method
# T3 sequence (P09917 whole entry): T1 sequence (whole entry)
# [4] = molecular target: T4, Prostaglandin G/H synthase 2 (Homo sapiens, UniProt P35354); experiment: biochemical; type: cell-based, Sf21;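 also: recombinant enzyme produced in baculovirus-infected Sf21 cells, arachidonic acid substrate, PGE2 output quantified by LC-MS after 45 min, compounds preincubated 10 min beforehand, lower PGE2 means inhibition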
# T4 sequence (P35354 whole entry): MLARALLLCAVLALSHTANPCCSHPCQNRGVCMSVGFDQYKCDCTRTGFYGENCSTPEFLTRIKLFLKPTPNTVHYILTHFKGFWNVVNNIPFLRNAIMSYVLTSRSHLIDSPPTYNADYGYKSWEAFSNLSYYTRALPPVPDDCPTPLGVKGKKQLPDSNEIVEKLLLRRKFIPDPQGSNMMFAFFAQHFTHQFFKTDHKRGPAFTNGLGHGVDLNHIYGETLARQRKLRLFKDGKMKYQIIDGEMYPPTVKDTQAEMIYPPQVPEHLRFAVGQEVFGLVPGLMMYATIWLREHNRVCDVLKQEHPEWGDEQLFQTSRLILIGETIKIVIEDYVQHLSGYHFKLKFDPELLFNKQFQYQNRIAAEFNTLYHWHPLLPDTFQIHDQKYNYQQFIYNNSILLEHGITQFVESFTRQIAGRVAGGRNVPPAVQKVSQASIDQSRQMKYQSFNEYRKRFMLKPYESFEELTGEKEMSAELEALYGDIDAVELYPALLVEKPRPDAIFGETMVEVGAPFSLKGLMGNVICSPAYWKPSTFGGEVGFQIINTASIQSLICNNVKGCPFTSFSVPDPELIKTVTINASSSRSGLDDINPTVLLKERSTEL
# Description: Inhibition of human recombinant COX2 expressed in baculovirus infected sf21 cells assessed as decrease in PGE2 formation using arachidonic acid as substrate preincubated for 10 mins followed by substrate addition measured after 45 mins by LC-MS analysis
# [5] = molecular target: T5, Polyunsaturated fatty acid lipoxygenase ALOX15B (Homo sapiens, UniProt O15296); experiment: (§1) Inhibition of human recombinant N-terminal His-tagged 15-LOX2 expressed in Escherichia coli using arachidonic acid as substrate preincubated for 5 mins followed by substrate addition measured after 20 mins in dark by ferric ion oxidation-xylenol orange assay
# T5 sequence (O15296 whole entry): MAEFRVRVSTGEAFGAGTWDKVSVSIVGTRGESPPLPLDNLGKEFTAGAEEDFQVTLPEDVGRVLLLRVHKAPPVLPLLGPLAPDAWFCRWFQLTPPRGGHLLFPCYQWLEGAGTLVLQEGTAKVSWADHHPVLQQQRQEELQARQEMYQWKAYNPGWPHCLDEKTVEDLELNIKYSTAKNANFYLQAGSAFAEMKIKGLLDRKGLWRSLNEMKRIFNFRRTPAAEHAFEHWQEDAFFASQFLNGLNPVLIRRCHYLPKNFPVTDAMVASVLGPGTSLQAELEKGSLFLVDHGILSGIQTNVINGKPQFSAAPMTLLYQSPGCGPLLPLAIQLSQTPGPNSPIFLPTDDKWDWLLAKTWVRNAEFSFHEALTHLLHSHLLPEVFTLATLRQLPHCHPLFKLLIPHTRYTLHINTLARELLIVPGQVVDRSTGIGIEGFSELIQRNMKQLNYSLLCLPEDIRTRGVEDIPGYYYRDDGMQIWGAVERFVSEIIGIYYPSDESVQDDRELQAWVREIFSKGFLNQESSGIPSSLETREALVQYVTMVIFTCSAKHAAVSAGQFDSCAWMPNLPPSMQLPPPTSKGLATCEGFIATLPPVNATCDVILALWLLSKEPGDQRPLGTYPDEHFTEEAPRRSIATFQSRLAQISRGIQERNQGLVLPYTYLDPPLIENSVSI
# [6] = molecular target: T6, Polyunsaturated fatty acid lipoxygenase ALOX15B (Homo sapiens) (UniProt O15296); experiment: as §1, with “coli assessed as residual activity at 42 uM” for “coli”, “assay relative to control” for “assay”
# T6 sequence (whole entry): T5 sequence (O15296 whole entry)
SMILES,Activity [1],IC50 [2],IC50 [3],IC50 ([4]; read-out: IC50),IC50 [5],Activity [6],IC50 ([3]; read-out: IC50),IC50 ([4]; sf21),IC50 ([5]; read-out: IC50)
C[C@H]1[C@H](C)CC[C@]2(C)CC[C@]3(C)C(=CC[C@@H]4[C@@]5(C)CCC(=O)C(C)(C)[C@@H]5CC[C@]43C)[C@H]12,100%,Not Active,Not Active,> 40 µM,Not Active,100%,,,
CC1(C)[C@@H](O)CC[C@]2(C)[C@H]3CC=C4[C@@H]5C[C@@](C)(CO)CC[C@]5(C)CC[C@@]4(C)[C@]3(C)CC[C@@H]12,34.8%,Not Active,,> 40 µM,Not Active,100%,31.8 µM,,
CC1(C)CC[C@]2(C(=O)O)CC[C@]3(C)C(=CC[C@@H]4[C@@]5(C)C[C@H](O)[C@H](O)[C@@](C)(C(=O)O)[C@@H]5CC[C@]43C)[C@@H]2C1,40.7%,Not Active,,> 40 µM,Not Active,100%,30.4 µM,,
CC1(C)CC[C@]2(C)CC[C@]3(C)C(=CC(=O)[C@@H]4[C@@]5(C)CC[C@H](O)C(C)(C)[C@@H]5CC[C@]43C)[C@@H]2C1,70.4%,Not Active,,> 40 µM,Not Active,100%,> 40 µM,,
C[C@H]1[C@H](C)CC[C@]2(C)CC[C@]3(C)C(=CC[C@@H]4[C@@]5(C)CC[C@H](O)C(C)(C)[C@@H]5CC[C@]43C)[C@H]12,55.5%,Not Active,,,Not Active,100%,> 40 µM,Not Active,
C[C@H]1[C@H](C)CC[C@]2(CO)CC[C@]3(C)C(=CC[C@@H]4[C@@]5(C)CC[C@H](O)C(C)(C)[C@@H]5CC[C@]43C)[C@H]12 [UVAOL],45%,Not Active,,,,70.2%,,Not Active,> 40 µM
CC1(C)[C@@H](O)CC[C@]2(C)[C@H]3C(=O)C=C4[C@@H]5C[C@@](C)(CO)CC[C@]5(C)CC[C@@]4(C)[C@]3(C)CC[C@@H]12,25.2%,Not Active,,> 40 µM,Not Active,100%,25.7 µM,,
C[C@H]1[C@H](C)CC[C@]2(C)CC[C@]3(C)C(=CC(=O)[C@@H]4[C@@]5(C)CC[C@@H](O)[C@](C)(C(=O)O)[C@@H]5CC[C@]43C)[C@H]12 [11-KETO BOSWELLIC ACID],31.9%,,,> 40 µM,Not Active,100%,28.3 µM,,
CC(=O)O[C@@H]1CC[C@@]2(C)[C@@H](CC[C@]3(C)[C@@H]2C(=O)C=C2[C@@H]4[C@@H](C)[C@H](C)CC[C@]4(C)CC[C@]23C)[C@@]1(C)C(=O)O [AKBA],41.2%,,,> 40 µM,,81.7%,35.6 µM,,> 40 µM
CC1(C)CC[C@]2(C)CC[C@]3(C)C(=CC[C@@H]4[C@@]5(C)CC[C@H](O)C(C)(C)[C@@H]5CC[C@]43C)[C@@H]2C1 [beta-AMYRIN],73.3%,Not Active,,,,97.2%,> 40 µM,Not Active,> 40 µM

# The remaining lines, values ahead:
Activity [1],IC50 [2],IC50 [3],IC50 ([4]; read-out: IC50),IC50 [5],Activity [6],IC50 ([3]; read-out: IC50),IC50 ([4]; sf21),IC50 ([5]; read-out: IC50),SMILES
59.8%,Not Active,,,,64.7%,> 40 µM,Not Active,> 40 µM,CC1(C)CC[C@]2(C(=O)O)CC[C@]3(C)C(=CC[C@@H]4[C@@]5(C)CC[C@H](O)[C@@](C)(CO)[C@@H]5CC[C@]43C)[C@@H]2C1 [HEDERAGENIN]
100%,Not Active,Not Active,,Not Active,100%,,Not Active,,CC1(C)CC[C@]2(C(=O)O)CC[C@]3(C)C(=CC[C@@H]4[C@@]5(C)CC[C@H](O)[C@@](C)(C=O)[C@@H]5CC[C@]43C)[C@@H]2C1
29.8%,Not Active,,,Not Active,100%,30.6 µM,Not Active,,CC1(C)CC[C@]2(C)CC[C@]3(C)C(=CC[C@@H]4[C@@]5(C)CC[C@H](O)[C@](C)(CO)[C@@H]5CC[C@]43C)[C@@H]2C1
60.7%,Not Active,,,Not Active,100%,> 40 µM,Not Active,,CC1(C)CC[C@]2(CO)CC[C@]3(C)C(=CC[C@@H]4[C@@]5(C)CC[C@H](O)C(C)(C)[C@@H]5CC[C@]43C)[C@@H]2C1 [ERYTHRODIOL]
86%,Not Active,,,Not Active,100%,> 40 µM,Not Active,,CC1(C)CC[C@]2(C(=O)O)CC[C@]3(C)C(=CC[C@@H]4[C@@]5(C)CC[C@H](O)[C@@](C)(C(=O)O)[C@@H]5CC[C@]43C)[C@@H]2C1
71.9%,Not Active,,> 40 µM,Not Active,100%,> 40 µM,,,CC1(C)CC[C@]2(C(=O)O)CC[C@]3(C)C(=CC[C@@H]4[C@@]5(C)C[C@H](O)[C@H](O)[C@@](C)(CO)[C@@H]5CC[C@]43C)[C@@H]2C1
